How the values were obtained:
Type in all cases: in vivo
Viola tricolor [1] = assay: Pre-emergence herbicidal action, VIOTR; design: key to Herbicidal action against VIOTR: % activity: 100 = plants have died, 0 = like control plants; conditions: for herbicidal action VIOTR: dosage 320 g/ha
Excerpt: (§1) 1. Pre-Emergence Herbicidal Action Against Harmful Plants Seeds of monocotyledonous and dicotyledonous weed plants and crop plants are laid out in sandy loam soil in wood-fiber pots and covered with soil. The compounds of the invention, formulated in the form of wettable powders (WP) or as emulsion concentrates (EC), are then applied to the surface of the covering soil in the form of an aqueous suspension or emulsion at a water application rate equating to 600 to 800 l/ha, with addition of 0.2% wetting agent. After the treatment, the pots are placed in a greenhouse and kept under good growth conditions for the trial plants. The damage to the test plants is scored visually after a test period of 3 weeks by comparison with untreated controls (herbicidal activity in percent (%): 100% activity=the plants have died, 0% activity=like control plants). […] The tables below illustrate, in an exemplary manner, the […] herbicidal action of the compounds according to the invention, the herbicidal activity being stated in percent. [table] In the experiments that follow, herbicidal action of numerous inventive compounds and the known compounds that are structurally closest from D1 (WO 2012/028579 A1) and D2 (WO 2018/202535 A1) were compared under the above-specified conditions by the pre-emergence and post-emergence method. The example numbers given in the tables relate to the compounds disclosed in the respective documents. In addition to the compounds disclosed in D1 and D2, the following compounds V-1 to V-14 that are encompassed by D1 or D2 but are not compounds specified therein were used in the comparative experiments: • V-1: 2-(methylsulfanyl)-3-(methylsulfinyl)-N-(1-methyl-1H-tetrazol-5-yl)-4-(trifluoromethyl)benzamide • V-2: 2-(methylsulfanyl)-3-(methylsulfonyl)-N-(1-methyl-1H-tetrazol-5-yl)-4-(trifluoromethyl)benzamide • V-3: 2,3-bis(ethylsulfanyl)-N-(1-methyl-1H-tetrazol-5-yl)-4-(trifluoromethyl)benzamide • V-4: 2-chloro-3-(ethylsulfanyl)-N-(1-methyl-1H-tetrazol-5-yl)-4-(trifluoromethyl)benzamide • V-5: 2-chloro-4-iodo-3-(methylsulfanyl)-N-(1-methyl-1H-tetrazol-5-yl)benzamide • V-6: 2-chloro-4-iodo-3-(methylsulfinyl)-N-(1-methyl-1H-tetrazol-5-yl)benzamide • V-7: 2-chloro-4-iodo-3-(methylsulfonyl)-N-(1-methyl-1H-tetrazol-5-yl)benzamide • V-8: 2-bromo-3-(methylsulfanyl)-N-(1-methyl-1H-tetrazol-5-yl)-4-(trifluoromethyl)benzamide • V-9: 2-bromo-3-(methylsulfinyl)-N-(1-methyl-1H-tetrazol-5-yl)-4-(trifluoromethyl)benzamide • V-10: 2-bromo-3-(methylsulfonyl)-N-(1-methyl-1H-tetrazol-5-yl)-4-(trifluoromethyl)benzamide • V-11: 2-bromo-3-(ethylsulfanyl)-N-(1-methyl-1H-tetrazol-5-yl)-4-(trifluoromethyl)benzamide • V-12: 2-bromo-3-(ethylsulfinyl)-N-(1-methyl-1H-tetrazol-5-yl)-4-(trifluoromethyl)benzamide • V-13: 2-bromo-3-(ethylsulfonyl)-N-(1-methyl-1-1H-tetrazol-5-yl)-4-(trifluoromethyl)benzamide • V-14: 2-cyclopropyl-3-(ethylsulfanyl)-N-(1-methyl-1H-tetrazol-5-yl)-4-(trifluoromethyl)benzamide Herbicidal Pre-Emergence Action: […]

Amaranthus retroflexus [2] = assay: Pre-emergence herbicidal action, AMARE; design: key to Herbicidal action against AMARE: % activity: 100 = plants have died, 0 = like control plants; conditions: for herbicidal action AMARE: dosage 320 g/ha
Excerpt: as §1

Echinochloa crus-galli [3] = assay: Pre-emergence herbicidal action, ECHCG; conditions: dosage 320 g/ha
Excerpt: as §1

Pharbitis purpurea = assay: Post-emergence herbicidal action, PHBPU; conditions: for Herbicidal action against PHBPU: post-emergence, dosage 80 g/ha; for herbicidal action PHBPU: Dosage 80 g/ha
Protocol: (§2) [table] 2. Post-Emergence Herbicidal Action Against Harmful Plants Seeds of monocotyledonous and dicotyledonous weed and crop plants are laid out in sandy loam soil in wood-fiber pots, covered with soil and cultivated in a greenhouse under good growth conditions. 2 to 3 weeks after sowing, the test plants are treated at the one-leaf stage. The compounds of the invention, formulated in the form of wettable powders (WP) or as emulsion concentrates (EC), are then sprayed onto the green parts of the plants in the form of an aqueous suspension or emulsion at a water application rate equating to 600 to 800 l/ha, with addition of 0.2% wetting agent. After the test plants have been left to stand in the greenhouse under optimal growth conditions for about 3 weeks, the action of the preparations is assessed visually in comparison to untreated controls (herbicidal action in percent (%): 100% activity=the plants have died, 0% activity=like control plants). […] The tables below illustrate, in an exemplary manner, the post-emergence herbicidal action of the compounds according to the invention, the herbicidal activity being stated in percent. In the experiments that follow, herbicidal action of numerous inventive compounds and the known compounds that are structurally closest from D1 (WO 2012/028579 A1) and D2 (WO 2018/202535 A1) were compared under the above-specified conditions by the pre-emergence and post-emergence method. The example numbers given in the tables relate to the compounds disclosed in the respective documents. In addition to the compounds disclosed in D1 and D2, the following compounds V-1 to V-14 that are encompassed by D1 or D2 but are not compounds specified therein were used in the comparative experiments: • V-1: 2-(methylsulfanyl)-3-(methylsulfinyl)-N-(1-methyl-1H-tetrazol-5-yl)-4-(trifluoromethyl)benzamide • V-2: 2-(methylsulfanyl)-3-(methylsulfonyl)-N-(1-methyl-1H-tetrazol-5-yl)-4-(trifluoromethyl)benzamide • V-3: 2,3-bis(ethylsulfanyl)-N-(1-methyl-1H-tetrazol-5-yl)-4-(trifluoromethyl)benzamide • V-4: 2-chloro-3-(ethylsulfanyl)-N-(1-methyl-1H-tetrazol-5-yl)-4-(trifluoromethyl)benzamide • V-5: 2-chloro-4-iodo-3-(methylsulfanyl)-N-(1-methyl-1H-tetrazol-5-yl)benzamide • V-6: 2-chloro-4-iodo-3-(methylsulfinyl)-N-(1-methyl-1H-tetrazol-5-yl)benzamide • V-7: 2-chloro-4-iodo-3-(methylsulfonyl)-N-(1-methyl-1H-tetrazol-5-yl)benzamide • V-8: 2-bromo-3-(methylsulfanyl)-N-(1-methyl-1H-tetrazol-5-yl)-4-(trifluoromethyl)benzamide • V-9: 2-bromo-3-(methylsulfinyl)-N-(1-methyl-1H-tetrazol-5-yl)-4-(trifluoromethyl)benzamide • V-10: 2-bromo-3-(methylsulfonyl)-N-(1-methyl-1H-tetrazol-5-yl)-4-(trifluoromethyl)benzamide • V-11: 2-bromo-3-(ethylsulfanyl)-N-(1-methyl-1H-tetrazol-5-yl)-4-(trifluoromethyl)benzamide • V-12: 2-bromo-3-(ethylsulfinyl)-N-(1-methyl-1H-tetrazol-5-yl)-4-(trifluoromethyl)benzamide • V-13: 2-bromo-3-(ethylsulfonyl)-N-(1-methyl-1-1H-tetrazol-5-yl)-4-(trifluoromethyl)benzamide • V-14: 2-cyclopropyl-3-(ethylsulfanyl)-N-(1-methyl-1H-tetrazol-5-yl)-4-(trifluoromethyl)benzamide Herbicidal Pre-Emergence Action: […]

Veronica persica [4] = assay: Post-emergence herbicidal action, VERPE; design: key: % herbicidal action vs untreated; 100 = plants died, 0 = like control; conditions: for Herbicidal action against VERPE: post-emergence, dosage 80 g/ha; for herbicidal action VERPE: Dosage 80 g/ha
Protocol: as §2

Matricaria inodora [5] = assay: Pre-emergence herbicidal action, MATIN; conditions: dosage 320 g/ha
Excerpt: as §1

Amaranthus retroflexus [6] = assay: Post-emergence herbicidal action, AMARE; design: key: % herbicidal action vs untreated; 100 = plants died, 0 = like control; conditions: for Herbicidal action against AMARE: post-emergence, dosage 80 g/ha; for herbicidal action AMARE: Dosage 80 g/ha
Protocol: as §2

Veronica persica [7] = assay: Pre-emergence herbicidal action, VERPE; conditions: dosage 320 g/ha
Excerpt: as §1

Echinochloa crus-galli [8] = assay: Post-emergence herbicidal action, ECHCG; design: key: % herbicidal action vs untreated; 100 = plants died, 0 = like control; conditions: for Herbicidal action against ECHCG: post-emergence, dosage 80 g/ha; for herbicidal action ECHCG: Dosage 80 g/ha
Protocol: as §2

Viola tricolor [9] = assay: Post-emergence herbicidal action, VIOTR; design: key: % herbicidal action vs untreated; 100 = plants died, 0 = like control; conditions: for Herbicidal action against VIOTR: post-emergence; for herbicidal action VIOTR: Dosage 80 g/ha
Protocol: as §2

Abutilon theophrasti [10] = assay: Post-emergence herbicidal action, ABUTH; design: key: % herbicidal action vs untreated; 100 = plants died, 0 = like control; conditions: for Herbicidal action against ABUTH: post-emergence, dosage 80 g/ha; for herbicidal action ABUTH: Dosage 80 g/ha
Protocol: as §2

Stellaria media = assay: Post-emergence herbicidal action, STEME; design: key: % herbicidal action vs untreated; 100 = plants died, 0 = like control; conditions: for Herbicidal action against STEME: post-emergence, dosage 80 g/ha; for herbicidal action STEME: Dosage 80 g/ha
Protocol: as §2

Abutilon theophrasti [11] = assay: Pre-emergence herbicidal action, ABUTH; conditions: dosage 320 g/ha
Excerpt: as §1

Setaria viridis = assay: Post-emergence herbicidal action, SETVI; design: key: % herbicidal action vs untreated; 100 = plants died, 0 = like control; conditions: for herbicidal action SETVI: Dosage 80 g/ha; for Herbicidal action against SETVI: post-emergence, dosage 80 g/ha
Protocol: as §2

Matricaria inodora [12] = assay: Post-emergence herbicidal action, MATIN; design: key: % herbicidal action vs untreated; 100 = plants died, 0 = like control; conditions: for herbicidal action MATIN: Dosage 80 g/ha; for Herbicidal action against MATIN: post-emergence, dosage 80 g/ha
Protocol: as §2

[13] = comparative experiment, 20 g of a.i./ha

| Compound | herbicidal action ECHCG (Echinochloa crus-galli [3]) | Herbicidal action against PHBPU (Pharbitis purpurea) | Herbicidal action against VERPE (Veronica persica [4]) | herbicidal action AMARE (Amaranthus retroflexus [2]) | herbicidal action MATIN (Matricaria inodora [5]) | Herbicidal action against AMARE (Amaranthus retroflexus [6]) | herbicidal action VERPE (Veronica persica [7]) | Herbicidal action against ECHCG (Echinochloa crus-galli [8]) | Herbicidal action against VIOTR (Viola tricolor [9]; dosage 80 g/ha) | Herbicidal action against ABUTH (Abutilon theophrasti [10]) | herbicidal action ABUTH (Abutilon theophrasti [11]) | herbicidal action VIOTR (Viola tricolor [1]) | further results |
| --- | --- | --- | --- | --- | --- | --- | --- | --- | --- | --- | --- | --- | --- |
| Cc1c(C(=O)Nc2nnnn2C)ccc(Cl)c1C[S+](C)[O-] (stereo not shown) [Example 1-47] | – | – | – | – | – | – | – | – | – | – | – | – | Herbicidal action against VIOTR (Viola tricolor [1]; [13]): 30; Herbicidal action against AMARE (Amaranthus retroflexus [2]; [13]): 80 |
| Cn1nnnc1NC(=O)c1ccc(C(F)(F)F)c(CS(C)(=O)=O)c1S(C)(=O)=O [Example 1-199] | 90% | 80 | 80 | 90% | 90% | 80 | 100% | 80 | 90 | 90 | – | – | Herbicidal action against STEME (Stellaria media): 90 |
| COc1c(C(=O)Nc2nnnn2C)ccc(Cl)c1C[S+](C)[O-] (stereo not shown) [Example 1-571] | – | – | – | 90% | – | – | 80% | – | – | – | 100% | – | herbicidal action PHBPU (Pharbitis purpurea): 90; herbicidal action VERPE (Veronica persica [4]): 90; herbicidal action AMARE (Amaranthus retroflexus [6]): 80; herbicidal action ECHCG (Echinochloa crus-galli [8]): 90; herbicidal action VIOTR (Viola tricolor [9]): 80; herbicidal action SETVI (Setaria viridis): 80; herbicidal action ABUTH (Abutilon theophrasti [10]): 80; herbicidal action MATIN (Matricaria inodora [12]): 80; herbicidal action STEME (Stellaria media): 100 |
| COc1c(C(=O)Nc2nnnn2C)ccc(Cl)c1CS(C)(=O)=O [Example 1-572] | 80% | 80 | 90 | 100% | – | 90 | 80% | 90 | 80 | 80 | 80% | – | Herbicidal action against VIOTR (Viola tricolor [9]; comparative experiment, 5 g of a.i./ha): 50; Herbicidal action against SETVI (Setaria viridis): 80 |
| CSCc1c(S(C)(=O)=O)ccc(C(=O)Nc2nnnn2C)c1C [Example 1-37] | – | – | – | 100% | 80% | – | 90% | – | – | – | 80% | 100% | herbicidal action PHBPU (Pharbitis purpurea): 90; herbicidal action VERPE (Veronica persica [4]): 100; herbicidal action AMARE (Amaranthus retroflexus [6]): 100; herbicidal action ECHCG (Echinochloa crus-galli [8]): 100; herbicidal action VIOTR (Viola tricolor [9]): 100; herbicidal action SETVI (Setaria viridis): 100; herbicidal action ABUTH (Abutilon theophrasti [10]): 90; herbicidal action MATIN (Matricaria inodora [12]): 80; herbicidal action STEME (Stellaria media): 100 |
| CCCn1nnnc1NC(=O)c1ccc(I)c(CSC)c1Cl [Example 3-362] | – | – | – | – | – | 80 | – | 80 | – | 80 | – | 80% | Herbicidal action against MATIN (Matricaria inodora [12]): 90 |
| CCCn1nnnc1NC(=O)c1ccc(C(F)F)c(CS(C)(=O)=O)c1C [Example 3-109] | 100% | 90 | 100 | 100% | 100% | 100 | 90% | 90 | 100 | – | 100% | 100% | Herbicidal action against SETVI (Setaria viridis): 90; Herbicidal action against MATIN (Matricaria inodora [12]): 100; Herbicidal action against STEME (Stellaria media): 100 |
